Laboratory results published in patent publication US12466839B2, “Allosteric AKT inhibitors for use in the treatment of Hereditary Hemorrhagic Telangiectasia” (VADERIS THERAPEUTICS AG, priority 2020, dated 2025).
Entries after “also recorded” stand apart in the source; their conditions may differ. Each block holds one molecule with its values, some of them ahead of it.

Legend:
[1] = Pharmacokinetics (PK) profile in neonate mice; format: in vivo, mouse
Protocol: Terminal blood samples collected at 24 h and 48 h post injections were collected from each mouse under isoflurane anaesthesia for the preparation of plasma. 4 neonate mice were used per time point in the study. Blood was collected into EDTA coated microvettes (Sartsed) for plasma preparation. Blood was centrifuged at 2700×g for 10 minutes and approximately 30 to 40 μl plasma was removed and aliquoted into polypropylene tubes (two aliquots per animal). Plasma samples were stored at −80° C. until bioanalysis. VAD044 compound levels in plasma samples was determined by LC-MS/MS.

[2] = system: nosebleeds in HHT patients; conditions: HHT patients (Lebrin et al.); cited from earlier work
[3] = Safety/toxicity profile in wild-type neonatal mice
Text: C57Bl/6J pregnant females were provided by Janvier Labs. EngFlox/flox mice (Mahmoud et al., (2010), “Pathogenesis of arteriovenous malformations in the absence of endoglin”, Circulation Research. https://doi.org/10.1161/[…].109.211037) were crossed with Cdh5(PAC)-CreERT2 (12) to generate endothelial specific inducible Eng knockout. Animal housing and procedures were in accordance with the Dutch Government guidelines and directive 2010/63/EU of the European Parliament. All efforts were made to minimize the number of animals used and their suffering. The institutional Committee for Animal Welfare of Leiden University Medical Center (project number AVD1160020171628) approved all protocols. Male and female mice were used during the first postnatal week to study retinal angiogenesis.
Retinas were processed for immunofluorescence staining as described (Lebrin et al., (2010), “Thalidomide stimulates vessel maturation and reduces epistaxis in individuals with hereditary hemorrhagic telangiectasia”, Nature Medicine. https://doi.org/10.1038/nm.2131).

[4] = Pup lethality / adverse effects in Eng-iKO mice; format: in vivo
Protocol: The Eng Flox/flox; cdh5-CreERT2 were injected with tamoxifen (50 μg) at P2 to induce nearly […] The same volume of vehicle was injected serving as control animals. Mice were then euthanized at P7 and retinas processed for immunofluorescence staining as described (Lebrin et al., as above).
(§1) The same volume of vehicle was injected serving as control animals. Mice were then euthanized at P7 and retinas processed for immunofluorescence staining as described (Lebrin et al., as above).

[5] = system: AKT kinase in Pi3Kα or PTEN mutant cells lines (e.g. MCF7, BT474 or LnCAP); conditions: similar cell line; cited from earlier work
[6] = system: angiogenesis in C57Bl/6J mice retinas; test: Neonatal retinal angiogenesis model in wild-type mice; format: in vivo, mouse (C57Bl/6J); conditions: for anti-angiogenic properties (overall conclusion): mouse retinas
Text: (§2) For the retinal vascular network, quantification of the number of AV shunts per mouse was done manually. […] A custom own-lab made macro allowed automatic processing of the images, using the same processing and quantification parameters. Briefly, the brightness of the images was enhanced by modifying the pixel extreme values, which depends on the specific image histogram content. A Gaussian filter was applied to reduce the intensity in homogeneities. The filter order depended on the image resolution. Next, the threshold step was computed, based on a global threshold technique such as Otsu's method or Li's method, resulting in binary image. A median filter was then applied to eliminate potential local irregularities, which could cause false branching point detection. From the binary images, the vascular density was quantified (calculated as the ratio of pixels associated with the vessels divided by the total number of pixels in the image). For the other parameters, a skeleton of the images was first computed using ImageJ, then the total vascular length was quantified using the Measure Skeleton Length plug-in from ImageJ. The number of branch points was extracted from the Analyze Skeleton plug-in of ImageJ. All results were transferred to Microsoft Office Excel software and automatically rearranged using a lab custom-made program. As all images generated at each step of the processing were saved, a visual control was made to ensure that there were no aberrant results.
(§3) Statistical analysis was performed with Prism 7 software (GraphPad). For most of the experiments, 1-way ANOVA was used for multiple comparisons. Results are expressed as mean±SEM. For post hoc pairwise, the Dunnett's test was used. A value of *P<0.05, **P<0.01, ***P<0.001 or ****P<0.0001 denotes statistical significance. An in-group variation of around 15% in parameters related to blood vessel architecture changes has been previously observed by the inventors, therefore a difference between controls and mutant mice of around 20-30% was anticipated. It was therefore expected that a group of 8 mice per condition would reveal statistical differences.
(§4) Eyes were fixed in 4% paraformaldehyde (PFA) in PBS at room temperature for 10 min, retinas were dissected, post-fixed in 4% PFA in PBS at 4° C. overnight then processed for immunostaining. Retinas were permeabilized in PBS, 1% BSA and 0.5% Triton X-100 at 4° C. overnight, rinsed in PBS, washed twice in PBlec (PBS, pH 6.8, 1% Triton-X-100, 0.1 mM CaCl2, 0.1 mM MgCl2, 0.1 mM MnCl2), and then incubated in biotinylated Griffonia simplicifolia lectin (isolectin B4) (B-1205, Vector Laboratories, 1:50) in PBlec at 4° C. overnight. After 5 washes in PBS, samples were incubated with streptavidin Cy-3 (PA43001, Sigma-Aldrich, 1:100) and with a-SMA (clone 1A4) (F3777, Sigma-Aldrich) conjugated with FITC diluted in PBS, 0.5% BSA, and 0.25% X-100 at 4° C. for 2 h. After washing, flat whole-mount retinas were mounted in DAKO medium (S3023, Dako). Complete high-resolution 3-dimensional rendering of whole-mount retinas was acquired using Laser Scanning Microscope SP5 or SP8 (Leica).

[7] = system: AVM formation in Eng-iKO mice; test: Prevention of AVM formation in Eng-iKO mice (retinal vascular network); format: in vivo, mouse
Protocol: The Eng Flox/flox; cdh5-CreERT2 were injected with tamoxifen (50 μg) at P2 to […] once at P3, P4, P5 and P6. The same volume of vehicle was injected serving as control animals. Mice were then euthanized at P7 and retinas processed for immunofluorescence staining as described (Lebrin et al., as above).
as §1, §2, §3, §4

AKT2 = AKT2 (Homo sapiens, UniProt P31751); test: Co-crystal structure in complex with AKT2; format: binding; conditions: 2.32 Å co-crystal structure with AKT2
[8] = once at P4, 5 to 25 mg·kg-1, i.p

Chain of AKT2 (P31751 whole entry): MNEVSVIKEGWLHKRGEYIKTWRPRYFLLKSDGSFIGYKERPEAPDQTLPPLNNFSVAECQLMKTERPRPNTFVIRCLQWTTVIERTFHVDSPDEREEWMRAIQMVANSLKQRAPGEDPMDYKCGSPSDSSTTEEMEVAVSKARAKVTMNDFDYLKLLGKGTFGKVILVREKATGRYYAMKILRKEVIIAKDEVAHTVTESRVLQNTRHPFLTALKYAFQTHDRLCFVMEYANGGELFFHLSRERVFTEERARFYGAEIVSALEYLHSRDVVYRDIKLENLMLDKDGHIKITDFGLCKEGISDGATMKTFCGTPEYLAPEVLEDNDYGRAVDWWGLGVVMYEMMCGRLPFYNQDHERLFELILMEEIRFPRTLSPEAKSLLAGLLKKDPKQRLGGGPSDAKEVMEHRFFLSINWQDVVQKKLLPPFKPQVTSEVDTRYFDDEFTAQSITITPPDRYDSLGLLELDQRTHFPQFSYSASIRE

- Cavg (effective concentration) [1]: 22.9 ng/mL
SMILES: CCN1C(=O)COc2nc(-c3ccc([C@]4(N)C[C@@H](O)C4)cc3)c(-c3ccccc3)cc21 [VAD044 free base, 6-(4-(1-amino-3-hydroxycyclobutyl)phenyl)-1-ethyl-7-phenyl-1H-pyrido[2,3-b][1,4]oxazin-2(3H)-one]

SMILES: O=C1CCC(N2C(=O)c3ccccc3C2=O)C(=O)N1 (centres unmarked) [Thalidomide]
- severity and frequency of nosebleeds [2]: reduce the severity and frequency of nosebleeds

SMILES: CCCCCCCCCCCCCCCCCCOP(=O)([O-])OC1CC[N+](C)(C)CC1 [Perifosine]
- weight gain ([3]; injected once at P4, 50 mg·kg-1): delayed weight gain
- pup mortality ([3]; injected once at P4, 100 mg·kg-1): induced important pup mortality
- adverse effects ([3]; injected once at P4, 5 to 25 mg·kg-1): No adverse effects
- pup death ([4]; daily intraperitoneal administration at 25 mg·kg-1): resulted in pup death
- cellular inhibitory activity on AKT [5]: uM range
- anti-angiogenic properties (overall conclusion) [6]: weak anti-angiogenic properties
- vascular radial expansion ([6]; once at P4, 100 mg·kg-1): reduced vascular radial expansion
- effect on angiogenesis ([6]; once at P4, 5 to 10 mg·kg-1): did not affect angiogenesis
- number of branch points and vascular area of the retinal vascular bed ([6]; once at P4, 25 to 100 mg·kg-1): slight reduction
- prevention of AVM formation ([7]; Eng-iKO mice, 25 or 50 mg·kg-1 i.p at P3 and P5, or 10 mg·kg-1 daily P3 to P6): unable to prevent AVM formation
- inhibition of angiogenesis in Eng-iKO mice ([7]; Eng-iKO mice, doses and injection schemes tested): did not inhibit angiogenesis
- effects in shunt formation ([7]; HHT1 mouse model, 25 and 50 mg·kg-1): no significant effects
- efficacy on shunt formation ([7]; injected every day at 10 mg·kg-1): trend for efficacy was observed but statistical significance was not achieved

- binding site in co-crystal structure (AKT2): binds in an allosteric binding pocket
SMILES: CCCN1C(=O)COc2nc(-c3ccc([C@]4(N)C[C@](C)(O)C4)cc3)c(-c3ccccc3)cc21 [Compound 6]

SMILES: Cn1ncc(Cl)c1-c1cc(C(=O)N[C@H](CN)Cc2ccc(F)c(F)c2)oc1Cl [Uprosertib]
- pups mortality ([4]; 5 mg·kg−1 injected twice at P3 and P6): high levels of pups mortality
- pup death ([4]; Eng-iKO mice, 1 to 5 mg·kg−1 bodyweight): death of the majority of the pups
- pup death ([4]; Eng-iKO mice, two injections at P3 and P5): death of the majority of the pups
- anti-angiogenic properties (overall conclusion) [6]: potent inhibitor of angiogenesis; also recorded: potent antiangiogenic properties
- number of branch points [6, 8]: marked decrease
- radial expansion [6, 8]: slight decrease
- vascular area [6, 8]: marked decrease
